Test in all cases: relative viability (nuclei count vs DMSO), 5 days (fraction); higher = more cells survive
Compound in experiment [1]: C1COCCN1C2=NC(=NC3=C2OC4=C3C=CC=N4)C5=CC(=CC=C5)NC(=O)C6=CN=C(C=C6)N + CC(=O)c1c(C)c2cnc(Nc3ccc(N4CCNCC4)cn3)nc2n(C2CCCC2)c1=O [Palbociclib] (partner 0.5 µM)
In short, it runs like this:
(§1)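 Relative viability is defined as nuclei in treated wells over nuclei in vehicle wells. Duplicate plates were run and medians reported. Lung cancer cell lines in 1536-well plates were dosed by pin tool one day after seeding, with one drug or with a fixed anchor-drug dose plus five library-drug doses (not always all listed) in √10 steps, and nuclei were counted after 5 days.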

Compound in experiment [2]: C1COCCN1C2=NC(=NC3=C2OC4=C3C=CC=N4)C5=CC(=CC=C5)NC(=O)C6=CN=C(C=C6)N + CC(C)C[C@H](NC(=O)[C@H](Cc1ccccc1)NC(=O)c1cnccn1)B(O)O [Bortezomib] (partner 0.002 µM)
In short, it runs like this: as §1

Compound in the experiment “SGI-1776 + Linsitinib”: CN1CCC(CNc2ccc3ncc(-c4cccc(OC(F)(F)F)c4)n3n2)CC1 [SGI-1776] + C[C@]1(O)C[C@@H](c2nc(-c3ccc4ccc(-c5ccccc5)nc4c3)c3c(N)nccn32)C1 [Linsitinib] (partner 1 µM)
In short, it runs like this:
as §1

Compound in the experiment “Entinostat + OSI-027”: Nc1ccccc1NC(=O)c1ccc(CNC(=O)OCc2cccnc2)cc1 [Entinostat] + COc1cccc2cc(-c3nc([C@H]4CC[C@H](C(=O)O)CC4)n4ncnc(N)c34)[nH]c12 [OSI-027] (partner 0.5 µM)
In short, it runs like this: as §1

Consider PC-3 [JPC-3], for which the relative viability is 0.506 in experiment [1] (first compound 0.02 µM); 0.512 in experiment [1] (first compound 0.06325 µM); 0.592 in experiment [1] (first compound 0.6325 µM); 0.495 in experiment [1] (first compound 2 µM); 0.799 in experiment [2] (first compound 0.02 µM); 0.748 in experiment [2] (first compound 0.06325 µM). The relative viability came to 0.844 in experiment [2] (first compound 0.2 µM); 0.845 in experiment [2] (first compound 0.6325 µM); 0.634 in experiment [2] (first compound 2 µM); 0.999 with SGI-1776 + Linsitinib (first compound 0.08 µM); 0.974 with SGI-1776 + Linsitinib (first compound 0.8 µM); 1.02 with SGI-1776 + Linsitinib (first compound 2.53 µM). In addition, the relative viability with SGI-1776 + Linsitinib (first compound 8 µM) turned out to be 0.917; with Entinostat + OSI-027 (first compound 0.02 µM) it was 0.761; with Entinostat + OSI-027 (first compound 0.06325 µM) it was 0.745; in the experiment with Entinostat + OSI-027 (first compound 0.2 µM) it was 0.57; in the experiment with Entinostat + OSI-027 (first compound 0.6325 µM), 0.432; with Entinostat + OSI-027 (first compound 2 µM), 0.306.
On to PC-14, for which the relative viability in experiment [1] (first compound 0.02 µM) is 0.482; in experiment [1] (first compound 0.06325 µM) it was 0.562; in experiment [1] (first compound 0.2 µM) it was 0.562; in experiment [1] (first compound 0.6325 µM) it was 0.284; in experiment [1] (first compound 2 µM), 0.189; in experiment [2] (first compound 0.02 µM), 0.877. For the same cell line, the relative viability was 1.04 in experiment [2] (first compound 0.06325 µM); 0.835 in experiment [2] (first compound 0.2 µM); 0.822 in experiment [2] (first compound 0.6325 µM); 0.375 in experiment [2] (first compound 2 µM); 1.06 with SGI-1776 + Linsitinib (first compound 0.08 µM); 0.965 with SGI-1776 + Linsitinib (first compound 0.8 µM). In addition, the relative viability came out at 0.938 with SGI-1776 + Linsitinib (first compound 2.53 µM); 0.802 in the experiment with SGI-1776 + Linsitinib (first compound 8 µM); 0.814 in the experiment with Entinostat + OSI-027 (first compound 0.02 µM); 0.829 with Entinostat + OSI-027 (first compound 0.06325 µM); 0.779 with Entinostat + OSI-027 (first compound 0.2 µM); 0.235 with Entinostat + OSI-027 (first compound 0.6325 µM). Besides, in the experiment with Entinostat + OSI-027 (first compound 2 µM), the relative viability came to 0.0869.
Regarding RERF-LC-KJ, the relative viability in experiment [1] (first compound 0.02 µM) came out at 1.04; in experiment [1] (first compound 0.06325 µM), 1.15; in experiment [1] (first compound 0.2 µM), 1.21; in experiment [1] (first compound 0.6325 µM) it was 1; in experiment [1] (first compound 2 µM) it was 0.764; in experiment [2] (first compound 0.02 µM), 1.04. The relative viability in experiment [2] (first compound 0.06325 µM) is 1.21; in experiment [2] (first compound 0.2 µM), 1.04; in experiment [2] (first compound 0.6325 µM), 1.05; in experiment [2] (first compound 2 µM) it was 0.798; with SGI-1776 + Linsitinib (first compound 0.08 µM), 0.909; with SGI-1776 + Linsitinib (first compound 0.8 µM), 0.877. The relative viability with SGI-1776 + Linsitinib (first compound 2.53 µM) is 0.9; with SGI-1776 + Linsitinib (first compound 8 µM), 0.711; with Entinostat + OSI-027 (first compound 0.02 µM), 0.582; in the experiment with Entinostat + OSI-027 (first compound 0.06325 µM) it was 0.591; with Entinostat + OSI-027 (first compound 0.2 µM), 0.6; in the experiment with Entinostat + OSI-027 (first compound 0.6325 µM), 0.326. Further, the relative viability with Entinostat + OSI-027 (first compound 2 µM) came out at 0.264.
Turning to SK-LU-1, the relative viability in experiment [1] (first compound 0.02 µM) turned out to be 0.382; in experiment [1] (first compound 0.06325 µM), 0.382; in experiment [1] (first compound 0.2 µM), 0.371; in experiment [1] (first compound 0.6325 µM), 0.367; in experiment [1] (first compound 2 µM), 0.359; in experiment [2] (first compound 0.02 µM), 1.31. The relative viability in experiment [2] (first compound 0.06325 µM) was 0.998; in experiment [2] (first compound 0.2 µM), 1.02; in experiment [2] (first compound 0.6325 µM), 1.14; in experiment [2] (first compound 2 µM), 0.63; with SGI-1776 + Linsitinib (first compound 0.08 µM) it was 1.33; with SGI-1776 + Linsitinib (first compound 0.8 µM) it was 1.24. In addition, the relative viability came to 1.06 with SGI-1776 + Linsitinib (first compound 2.53 µM); 0.633 in the experiment with SGI-1776 + Linsitinib (first compound 8 µM); 0.357 in the experiment with Entinostat + OSI-027 (first compound 0.02 µM); 0.448 with Entinostat + OSI-027 (first compound 0.06325 µM); 0.35 in the experiment with Entinostat + OSI-027 (first compound 0.2 µM); 0.261 with Entinostat + OSI-027 (first compound 0.6325 µM). The relative viability with Entinostat + OSI-027 (first compound 2 µM) amounted to 0.231.
Consider SW 1573, for which the relative viability in experiment [1] (first compound 0.02 µM) is 0.397; in experiment [1] (first compound 0.06325 µM), 0.381; in experiment [1] (first compound 0.2 µM) it was 0.37; in experiment [1] (first compound 0.6325 µM), 0.429; in experiment [1] (first compound 2 µM) it was 0.261; in experiment [2] (first compound 0.02 µM), 1.16. Further, the relative viability in experiment [2] (first compound 0.06325 µM) was 0.904; in experiment [2] (first compound 0.2 µM), 1.01; in experiment [2] (first compound 0.6325 µM) it was 0.888; in experiment [2] (first compound 2 µM), 0.474; in the experiment with SGI-1776 + Linsitinib (first compound 0.08 µM), 0.94; in the experiment with SGI-1776 + Linsitinib (first compound 0.8 µM), 0.777. Further, the relative viability with SGI-1776 + Linsitinib (first compound 2.53 µM) was 0.765; in the experiment with SGI-1776 + Linsitinib (first compound 8 µM), 0.741; with Entinostat + OSI-027 (first compound 0.02 µM) it was 0.639; with Entinostat + OSI-027 (first compound 0.06325 µM), 0.832; in the experiment with Entinostat + OSI-027 (first compound 0.2 µM) it was 0.617; with Entinostat + OSI-027 (first compound 0.6325 µM) it was 0.598. Also, in the experiment with Entinostat + OSI-027 (first compound 2 µM), the relative viability is 0.54.

The values above are taken from the supplement of paper PMC10307832.
